Test results from US11345659B2, “Pipecolic esters for inhibition of the proteasome” (THE BOARD OF REGENTS OF THE UNIVERSY OF TEXAS SYSTEM, priority 2018, dated 2022).
pEC50, pIC50: −log10 of the molar value. Like-named read-outs stand apart in the source and are kept apart here.

Tests used:
[1] = target: T1, 20 S human housekeeping proteasome (Homo sapiens, UniProt P25787+P25789); assay: ChT-L peptidase activity of 20 S proteasome activated with Rpt5 peptide; assay type: biochemical
T1 construct: purified from erythrocytes; purchased Enzo Life Sciences, Inc. (Farmingdale, N.Y.); host or cells: human erythrocytes
Procedure: Human housekeeping 20 S and 26 S and complexes purified from erythrocytes were purchased from Enzo Life Sciences, Inc. (Farmingdale, N.Y.). The 1 mg/ml stock 20 S proteasome was diluted to 0.2 mg/ml working solution in 50 mM Tris/HCl, pH 8 containing 20% glycerol (dilution buffer). For the 26 S proteasome stock, the dilution buffer was supplemented with 2 mM ATP, 1 mM MgCl2, and 1 mM DTT (dithiothreitol). The ChT-L peptidase activity was measured as arbitrary intensity units of fluorescence emitted by 7-amino-4-methylcoumarin (AMC) released from the canonical model peptide substrate succinyl-LeuLeuValTyr-methylcoumarin (SucLLVY-MCA; Bachem Bioscience Inc., Philadelphia, Pa.), used at concentration of 100 μM. Free AMC (Sigma-Aldrich, St. Louis, Mo.) was used as the standard. The Rpt5 C-terminal peptide was synthesized (standard solid-phase peptide chemistry) and purified to at least 98% purity by GenScript (Piscataway, N.J.). The Rpt5 peptide and the peptide substrate were dissolved in dimethylsulfoxide (DMSO) and such stock solutions were stored at −20° C. The total concentration of DMSO in final reaction mixtures never exceeded 3% (vol/vol).
The reaction was carried out in 96-well plates, in 100 μL of reaction mixture, for 1 hour at 37° C. In the case of 20 S proteasome, the reaction mixture consisted of 45 mM Tris/HCl, pH 8, 100 mM KCl with premixed 10 μM Rpt5 peptide and 100 μM Suc-LLVY-MCA, to which 200 ng (nearly […]) of proteasome and desired concentration of tested compounds in 1 μL of DMSO were added. To test the activity of 26 S proteasome under conditions challenging coordination of the three pairs of peptidase active centers, a mixture of three canonical substrates specific for the ChT-L (SucLLVY-MCA), trypsin-like (T-L; BocLRR-MCA) and caspase-like (Casp-L; Z-LLE-MCA) was used with each of the substrates at 33.3 μM (100 μM of the total substrate concentration). The reaction mixture in this case consisted of 50 mM Tris/HCl, pH 8, 20 mM NaCl, premixed with the substrates and 2 mM ATP, to which 200 ng (nearly 0.1 nmol) of the 26 S working solution and desired concentration of tested compounds in 0.5 μL of DMSO were added. The reaction rates were calculated from a linear segment of kinetic curves constructed from measurements in 1-minutes intervals (Fluoroskan Ascent plate reader; Thermo Fisher Scientific Inc., Waltham, Mass.). Reaction rates were calculated using a linear fit executed by Slope Analyzer and Enzyme Kinetics applications launched within Origin Pro 2017 (OriginLab). Specific activity of the control 20 S proteasome activated with the Rpt5 peptide was in the range of 1.4 to 2.3 nanomoles of AMC product released by 1 mg of 20 S per second (1.95±0.24; n=18). Specific activity of the control 26 S proteasome challenged with three substrates reached on average 0.28±0.06 nanomoles of AMC product released by 1 mg of the enzyme per second (n=6). For comparison, degradation of the canonical Suc-LLVY-MCA substrate by the control 26 S proteasome preceded with a rate in the range of 0.6-0.8 nanomoles of AMC released per mg of the enzyme per second. The data are presented as mean±SD or as a representative set from at least 3 independent experiments.
The compounds were evaluated using the 20 S human housekeeping proteasome. It was activated with the Rpt5 derived 10-residue peptide that contains the C-terminal HbYX (hydrophobic-Tyr-any AA) motif activating the proteasome in trans and to some extend mimic the activation by the 19 S regulatory particle (Osmulski and Gaczynska (2013) Molecular pharmacology 84: 104-113; Smith et al. (2006) J. Struct. Biol. 156: 72-83; Smith et al. (2007) Mol. Cell 27: 731-744). Proteolytic activity was monitored over time using a fluorogenic peptide substrate specific for the chymotrypsin-like active center (ChT-L, Suc-LLVY-AMC) in the presence of a concentration range of the inhibitors. […]

[2] = test system: Human multiple myeloma RPMI 8226 cells; assay: Proliferation of RPMI 8226 cells, live cell count by Trypan Blue exclusion; assay type: cell-based
Procedure: Human multiple myeloma RPMI 8226 cells were purchased from American Type Culture Collection (ATCC; Manassas, Va.) and cultured according to ATCC specifications. […] The content of live cells was determined by excluding the Trypan Blue-stained cells. The cells were counted with TC20 Automated Cell Counter (Bio-Rad Laboratories, Hercules, Calif.) and EC50 was calculated with Origin Pro 2017 (OriginLab Corporation, Northampton, Mass.). When indicated, the cells were harvested, washed twice in PBS, resuspended in dilution buffer and stored in −80° C. To prepare crude lysates the thawed preparations were vortexed with glass beads and centrifuged for 5 min 5,000×g (4° C.). The supernate was centrifuged for 20 min 14,000×g. The resulting supernate was used as “crude lysate.” SDS-PAGE was carried in 12% acrylamide, Tris-glycine gels from Invitrogen. Chameleon Duo (Li-Cor) and Rainbow RPN800E (GE Healthcare) molecular weight standards were separated on each gel alongside lysates. The proteins were transferred to nitrocellulose membrane in a semi-dry system. The membranes were probed with specific primary antibodies from Life Technologies (S6, PS6) and Li-Cor (COX IV), and then with secondary antibodies from Li-Cor. In each experiment visualization of S6, PS6 and COX IV was performed on the same membrane with Odyssey Infrared Imaging System (Li-Cor).
The effects of compound 3 observed in vitro prompted its influence on the proliferation of cultured cancer cells to be tested, namely the multiple myeloma RPMI 8226 line. […] Such relatively low EC50, as compared to in vitro determined IC50 values for peptidase activities (2-3 μM; FIG. 3A and FIG. 3B) should come to no surprise. […] The in vitro readout of single peptidase activities is a useful and convenient measure of the catalytic prowess of proteasome. However, especially in the case of allosteric regulators, it may not fully reflect the important structural and functional effects.
Referring to FIG. […] The data are averages (±SD) of three-to-five independent experiments. […]

Question: How did the pIC50 ([1]; ChT-L, Suc-LLVY-AMC substrate, 20 S activated with Rpt5 peptide, read-out: IC50) turn out when `COc1cc(CCCOC(=O)[C@@H]2CCCCN2C(=O)OCc2ccccc2)cc(OC)c1OC` [Compound 3, 1-benzyl 2-(3-(3,4,5-trimethoxyphenyl)propyl) (S)-piperidine-1,2-dicarboxylate] was run?
Answer: Its pIC50 is 5.70.

Question: And the pIC50 ([1]; summary of FIG. 3A and FIG. 3B, read-out: in vitro determined IC50 values for peptidase activities)?
Answer: The pIC50 was 5.52 to 5.70.

Question: And the “remaining ChT-L activity” value ([1]; tRpt5 added first, n=3)?
Answer: Its value is 53%±7%.

Question: What about the activity at 0.2 µM ([2]; RPMI 8226, 0.2 μM, 24 hours, read-out: cell proliferation, % of control) of the same compound?
Answer: Its activity at 0.2 µM is 60 to 65%.

Question: And the pEC50 ([2]; RPMI 8226, 48 hours, read-out: EC50, content of live cells)?
Answer: The pEC50 was 6.26.
